Data published in patent US11104660B2, “PDE4D inhibitors” (TETRA DISCOVERY PARTNERS, INC., priority 2019, dated 2021).
Like-named read-outs stand apart in the source and are kept apart here.

Legend:
PDE4D [1] = assay: Occupancy of Compound B by PET with Compound A (Lassen plot); format: in vivo, cynomolgus non-human primates (Macaca fascicularis); conditions: Compound B 3 mg/kg infusion
Source text: (§1) Two male non-naïve cynomolgus non-human primates (Macaca fascicularis) (“Subject 1” and “Subject 2”) were utilized in this study (7.0 and 5.5 kg). Subjects had previously undergone surgery for placement of arterial access ports for blood collection from the iliac artery. Each subject underwent a brain MR in a Philips 1.5T Intera scanner using a 3D T1 FFE sequence for subsequent registration with PET and application of a cynomolgus brain region of interest atlas for determination of regional time-activity curves. PET scans were conducted in each subject under baseline condition (i.e., Compound A, only) and 15 minutes after a 10 minute infusion of Compound B at 3 mg/kg (i.e. blocking condition). Compound B is a known PDE4D ligand, alternatively referred to as BPN14770.
(§2) Volume of distribution (VT) (mL/cm^3) of Compound A was estimated with the 2-tissue compartment (2TC) model and Logan graphical analysis (LGA, t*=30), for baseline and blocking scans, using 90 min of data. VT at baseline and blocking in ROIs were used to compute occupancy of Compound B via the occupancy (Lassen) plot. Time stability of VT estimated from 2TC and LGA models were assessed for both animals from 90 min or 120 minutes of data for baseline and blocking scans.

PDE4D [2] = assay: PET imaging of 11C-labeled Compound A in non-human primate brain (VT, uptake); format: in vivo, cynomolgus non-human primates (Macaca fascicularis); conditions: for VT (volume of distribution): 90 min
Protocol: The regional distribution and pharmacokinetics of ^11C-labeled compounds as described herein were evaluated on non-human primates via PET imaging.
as §1
PET scans were conducted with a Siemens Focus 220 microPET scanner. Subjects were anesthetized with ketamine 10 mg/kg IM approximately 45 minutes prior to Compound A injection. Atropine sulfate 0.05 mg/kg IM was administered approximately 35 minutes prior to Compound A injection. Subjects were intubated and maintained on isoflurane (2-2.5%) and oxygen (2 L/min). Indwelling catheters were placed in the saphenous veins for drug infusion, tracer injection and fluids (LRS 10 mL/kg/hr IV). Subjects were transported to the PET imaging bed, positioned, and monitored for body temperature, heart rate, expired CO2, respiration rate, and pulse O2.
(§3) A dynamic 90 (Subject 1) or 120 (Subject 2) minute PET scan acquisition was initiated at the start of Compound A injection, administered over 3 minutes via an infusion pump targeting an injected activity of 5 mCi. Relative to time of Compound A injection, arterial blood samples were collected in K2EDTA at −10, 0.75, 1.5, 2.25, 3, 4, 5, 10, 15, 30, 45, 60, 90 and 120 min. For each sample, an aliquot (200 uL) was gamma counted for radioactivity concentration determination, then processed to plasma. For −10, 5, 15, 30, 60, 90, 120 min plasma samples, radio HPLC was performed for determination of parent fraction of Compound A, and −10 min samples spiked with Compound A were used for stability analysis and determination of plasma free fraction. Aliquots (100 uL) of plasma samples collected at −10, 5, 15, 30, 60, 90, 120 min were frozen for subsequent determination of drug concentration levels.
At the conclusion of PET scan acquisition, an x-ray CT scan by an 8 slice NeuroLogica CereTom OTOscan of each Subject was collected of the head at 120 kVp, 4 mAs, slice thickness 0.625 mm and processed using filtered back projection. The CT scan was used for co-registration to PET for attenuation and scatter correction of the reconstructed PET scan. Listmode PET data were binned into 6×0.5 min, 3×1 min, 2×2 min and 22 ×5 min frames. Binned sinogram data were reconstructed by filtered backprojection.
Reconstructed PET images were analyzed using PMOD software. PET scans were transformed into MR template space via rigid PET-to-MR and affine+nonlinear MR-to-template registrations. Time-activity curves were generated from regions of interest (ROIs) defined on the MR template including the anterior cingulate, cerebellum, dorsolateral prefrontal cortex, entorhinal cortex, occipital cortex, striatum and thalamus. Peak uptake in the brain was between about 3.2% and 5.6% of the injected dose.
as §2

[3] = Plasma free fraction of Compound A (spiked -10 min plasma samples); format: in vitro ADME, cynomolgus non-human primates (Macaca fascicularis); conditions: cynomolgus monkey, read-out: fp (%) Plasma free fraction
Protocol: as §3

NC(=O)Cc1ccc(Nc2cc(C(F)(F)F)nc(-c3cccc(Cl)c3)n2)cc1 [Compound B]
Occupancy (%) (PDE4D [1]; Subject 1, 2TC): 84% | Occupancy (%) (PDE4D [1]; Subject 1, LGA): 88% | Occupancy (%) (PDE4D [1]; Subject 2, 2TC): 82% | Occupancy (%) (PDE4D [1]; Subject 2, LGA): 73%

[2H]C([2H])(c1cn[nH]c1)c1ccc(O[11CH3])c(-c2cccc([N+](=O)[O-])c2)n1 [Compound A]
VT (volume of distribution) (PDE4D [2]; Anterior Cingulate, Subject 1, 2TC, baseline): 15.8 mL/cm^3 | VT (volume of distribution) (PDE4D [2]; Anterior Cingulate, Subject 1, 2TC, blocking (Compound B 3 mg/kg)): 8.8 mL/cm^3 | VT (volume of distribution) (PDE4D [2]; Anterior Cingulate, Subject 1, LGA, baseline): 13.8 mL/cm^3 | VT (volume of distribution) (PDE4D [2]; Anterior Cingulate, Subject 1, LGA, blocking (Compound B 3 mg/kg)): 8.9 mL/cm^3 | VT (volume of distribution) (PDE4D [2]; Anterior Cingulate, Subject 2, 2TC, baseline): 13.7 mL/cm^3 | VT (volume of distribution) (PDE4D [2]; Anterior Cingulate, Subject 2, 2TC, blocking (Compound B 3 mg/kg)): 10.6 mL/cm^3 | VT (volume of distribution) (PDE4D [2]; Anterior Cingulate, Subject 2, LGA, baseline): 14.6 mL/cm^3 | VT (volume of distribution) (PDE4D [2]; Anterior Cingulate, Subject 2, LGA, blocking (Compound B 3 mg/kg)): 10.4 mL/cm^3 | VT (volume of distribution) (PDE4D [2]; Cerebellum, Subject 1, 2TC, baseline): 11.5 mL/cm^3 | VT (volume of distribution) (PDE4D [2]; Cerebellum, Subject 1, 2TC, blocking (Compound B 3 mg/kg)): 7.6 mL/cm^3 | VT (volume of distribution) (PDE4D [2]; Cerebellum, Subject 1, LGA, baseline): 10.2 mL/cm^3 | VT (volume of distribution) (PDE4D [2]; Cerebellum, Subject 1, LGA, blocking (Compound B 3 mg/kg)): 7.7 mL/cm^3 | VT (volume of distribution) (PDE4D [2]; Cerebellum, Subject 2, 2TC, baseline): 8.6 mL/cm^3 | VT (volume of distribution) (PDE4D [2]; Cerebellum, Subject 2, 2TC, blocking (Compound B 3 mg/kg)): 9.6 mL/cm^3 | VT (volume of distribution) (PDE4D [2]; Cerebellum, Subject 2, LGA, baseline): 9.2 mL/cm^3 | VT (volume of distribution) (PDE4D [2]; Cerebellum, Subject 2, LGA, blocking (Compound B 3 mg/kg)): 9.7 mL/cm^3 | VT (volume of distribution) (PDE4D [2]; Dorsolateral Frontal Cortex, Subject 1, 2TC, baseline): 26.2 mL/cm^3 | VT (volume of distribution) (PDE4D [2]; Dorsolateral Frontal Cortex, Subject 1, 2TC, blocking (Compound B 3 mg/kg)): 10.2 mL/cm^3 | VT (volume of distribution) (PDE4D [2]; Dorsolateral Frontal Cortex, Subject 1, LGA, baseline): 22.9 mL/cm^3 | VT (volume of distribution) (PDE4D [2]; Dorsolateral Frontal Cortex, Subject 1, LGA, blocking (Compound B 3 mg/kg)): 10.1 mL/cm^3 | VT (volume of distribution) (PDE4D [2]; Dorsolateral Frontal Cortex, Subject 2, 2TC, baseline): 15.2 mL/cm^3 | VT (volume of distribution) (PDE4D [2]; Dorsolateral Frontal Cortex, Subject 2, 2TC, blocking (Compound B 3 mg/kg)): 12.3 mL/cm^3 | VT (volume of distribution) (PDE4D [2]; Dorsolateral Frontal Cortex, Subject 2, LGA, baseline): 15.5 mL/cm^3 | VT (volume of distribution) (PDE4D [2]; Dorsolateral Frontal Cortex, Subject 2, LGA, blocking (Compound B 3 mg/kg)): 10.6 mL/cm^3 | VT (volume of distribution) (PDE4D [2]; Enthorinal Cortex, Subject 1, 2TC, baseline): 14.6 mL/cm^3 | VT (volume of distribution) (PDE4D [2]; Enthorinal Cortex, Subject 1, 2TC, blocking (Compound B 3 mg/kg)): 8.1 mL/cm^3 | VT (volume of distribution) (PDE4D [2]; Enthorinal Cortex, Subject 1, LGA, baseline): 11.7 mL/cm^3 | VT (volume of distribution) (PDE4D [2]; Enthorinal Cortex, Subject 1, LGA, blocking (Compound B 3 mg/kg)): 7.4 mL/cm^3 | VT (volume of distribution) (PDE4D [2]; Enthorinal Cortex, Subject 2, 2TC, baseline): 10.8 mL/cm^3 | VT (volume of distribution) (PDE4D [2]; Enthorinal Cortex, Subject 2, 2TC, blocking (Compound B 3 mg/kg)): 10.1 mL/cm^3 | VT (volume of distribution) (PDE4D [2]; Enthorinal Cortex, Subject 2, LGA, baseline): 10.5 mL/cm^3 | VT (volume of distribution) (PDE4D [2]; Enthorinal Cortex, Subject 2, LGA, blocking (Compound B 3 mg/kg)): 7.8 mL/cm^3 | VT (volume of distribution) (PDE4D [2]; Hippocampus, Subject 1, 2TC, baseline): 30.3 mL/cm^3 | VT (volume of distribution) (PDE4D [2]; Hippocampus, Subject 1, 2TC, blocking (Compound B 3 mg/kg)): 7.4 mL/cm^3 | VT (volume of distribution) (PDE4D [2]; Hippocampus, Subject 1, LGA, baseline): 19.4 mL/cm^3 | VT (volume of distribution) (PDE4D [2]; Hippocampus, Subject 1, LGA, blocking (Compound B 3 mg/kg)): 7.5 mL/cm^3 | VT (volume of distribution) (PDE4D [2]; Hippocampus, Subject 2, 2TC, baseline): 19.8 mL/cm^3 | VT (volume of distribution) (PDE4D [2]; Hippocampus, Subject 2, 2TC, blocking (Compound B 3 mg/kg)): 11.1 mL/cm^3 | VT (volume of distribution) (PDE4D [2]; Hippocampus, Subject 2, LGA, baseline): 17.4 mL/cm^3 | VT (volume of distribution) (PDE4D [2]; Hippocampus, Subject 2, LGA, blocking (Compound B 3 mg/kg)): 11.0 mL/cm^3 | VT (volume of distribution) (PDE4D [2]; Occipital Cortex, Subject 1, 2TC, baseline): 17.8 mL/cm^3 | VT (volume of distribution) (PDE4D [2]; Occipital Cortex, Subject 1, 2TC, blocking (Compound B 3 mg/kg)): 8.4 mL/cm^3 | VT (volume of distribution) (PDE4D [2]; Occipital Cortex, Subject 1, LGA, baseline): 15.1 mL/cm^3 | VT (volume of distribution) (PDE4D [2]; Occipital Cortex, Subject 1, LGA, blocking (Compound B 3 mg/kg)): 8.0 mL/cm^3 | VT (volume of distribution) (PDE4D [2]; Occipital Cortex, Subject 2, 2TC, baseline): 12.9 mL/cm^3 | VT (volume of distribution) (PDE4D [2]; Occipital Cortex, Subject 2, 2TC, blocking (Compound B 3 mg/kg)): 10.6 mL/cm^3 | VT (volume of distribution) (PDE4D [2]; Occipital Cortex, Subject 2, LGA, baseline): 13.1 mL/cm^3 | VT (volume of distribution) (PDE4D [2]; Occipital Cortex, Subject 2, LGA, blocking (Compound B 3 mg/kg)): 10.0 mL/cm^3 | Brain entry (PDE4D [2]; PET image analysis): readily entered the brain | Regional uptake (PDE4D [2]; PET image analysis): consistent with the known distribution of Compound B | VT (volume of distribution) (PDE4D [2]; Striatum, Subject 1, 2TC, baseline): 14.9 mL/cm^3 | VT (volume of distribution) (PDE4D [2]; Striatum, Subject 1, 2TC, blocking (Compound B 3 mg/kg)): 9.0 mL/cm^3 | VT (volume of distribution) (PDE4D [2]; Striatum, Subject 1, LGA, baseline): 13.9 mL/cm^3 | VT (volume of distribution) (PDE4D [2]; Striatum, Subject 1, LGA, blocking (Compound B 3 mg/kg)): 9.2 mL/cm^3 | VT (volume of distribution) (PDE4D [2]; Striatum, Subject 2, 2TC, baseline): 13.2 mL/cm^3 | VT (volume of distribution) (PDE4D [2]; Striatum, Subject 2, 2TC, blocking (Compound B 3 mg/kg)): 11.5 mL/cm^3 | VT (volume of distribution) (PDE4D [2]; Striatum, Subject 2, LGA, baseline): 13.4 mL/cm^3 | VT (volume of distribution) (PDE4D [2]; Striatum, Subject 2, LGA, blocking (Compound B 3 mg/kg)): 11.2 mL/cm^3 | VT (volume of distribution) (PDE4D [2]; Thalamus, Subject 1, 2TC, baseline): 17.6 mL/cm^3 | VT (volume of distribution) (PDE4D [2]; Thalamus, Subject 1, 2TC, blocking (Compound B 3 mg/kg)): 8.8 mL/cm^3 | VT (volume of distribution) (PDE4D [2]; Thalamus, Subject 1, LGA, baseline): 15.7 mL/cm^3 | VT (volume of distribution) (PDE4D [2]; Thalamus, Subject 1, LGA, blocking (Compound B 3 mg/kg)): 8.9 mL/cm^3 | VT (volume of distribution) (PDE4D [2]; Thalamus, Subject 2, 2TC, baseline): 11.6 mL/cm^3 | VT (volume of distribution) (PDE4D [2]; Thalamus, Subject 2, 2TC, blocking (Compound B 3 mg/kg)): 9.9 mL/cm^3 | VT (volume of distribution) (PDE4D [2]; Thalamus, Subject 2, LGA, baseline): 12.1 mL/cm^3 | VT (volume of distribution) (PDE4D [2]; Thalamus, Subject 2, LGA, blocking (Compound B 3 mg/kg)): 9.8 mL/cm^3 | Change of Compound A in regions of high uptake on blockage of PDE4D (PDE4D [2]; high dose of Compound B): substantial reduction | fraction unbound ([3]; Subject 1, baseline): 0.059 | fraction unbound ([3]; Subject 1, blocking (Compound B 3 mg/kg)): 0.059 | fraction unbound ([3]; Subject 2, baseline): 0.067 | fraction unbound ([3]; Subject 2, blocking (Compound B 3 mg/kg)): 0.047
